From US11464770B2, “Anticancer pharmaceutical composition” (NATIONAL CANCER CENTER, priority 2016, dated 2022)
pIC50: −log10 of the molar value. Like-named read-outs stand apart in the source and are kept apart here.

Tested on: colorectal cancer cell lines (e.g. DLD-1, HCT 116, SW620, HCT-15, HCT-8, RKO)
Assay: Cell based assay, cell viability (CellTiter-Glo), colorectal cancer cell lines
Method in brief: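 Read-out is ATP-dependent luminescence (CellTiter-Glo) taken after 72 h of exposure to compound at final concentrations from 0 to 2 μM. Cells were plated 24 h beforehand.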

[1] = Homo sapiens, DLD-1, 72 hours treatment, read-out: IC50, colorectal cancer cell line DLD-1
[2] = Homo sapiens, HCT 116, 72 hours treatment, read-out: IC50, colorectal cancer cell line HCT 116
[3] = Homo sapiens, HCT-8, 72 hours treatment, read-out: IC50, colorectal cancer cell line HCT-8
[4] = Homo sapiens, HCT-15, 72 hours treatment, read-out: IC50, colorectal cancer cell line HCT-15
[5] = Homo sapiens, HT-29, 72 hours treatment, read-out: IC50, colorectal cancer cell line HT-29
[6] = Homo sapiens, LoVo, 72 hours treatment, read-out: IC50, colorectal cancer cell line LoVo
[7] = Homo sapiens, SW480, 72 hours treatment, read-out: IC50, colorectal cancer cell line SW480
[8] = Homo sapiens, SW-620, SW620, 72 hours treatment, read-out: IC50, colorectal cancer cell line SW620
[9] = RKO, 72 hours treatment, read-out: IC50, colorectal cancer cell line RKO
[10] = Homo sapiens, DLD-1 cells, 72 hours treatment, read-out: IC50, colorectal cancer cell line DLD-1
[11] = Homo sapiens, HCT 116 cells, 72 hours treatment, read-out: IC50, colorectal cancer cell line HCT 116
[12] = Homo sapiens, HCT-8 cells, 72 hours treatment, read-out: IC50, colorectal cancer cell line HCT-8
[13] = Homo sapiens, HCT-15 cells, 72 hours treatment, read-out: IC50, colorectal cancer cell line HCT-15
[14] = Homo sapiens, HT-29 cells, 72 hours treatment, read-out: IC50, colorectal cancer cell line HT-29
[15] = Homo sapiens, LoVo cells, 72 hours treatment, read-out: IC50, colorectal cancer cell line LoVo
[16] = Homo sapiens, RKO cells, 72 hours treatment, read-out: IC50, colorectal cancer cell line RKO
[17] = Homo sapiens, SW480 cells, 72 hours treatment, read-out: IC50, colorectal cancer cell line SW480
[18] = Homo sapiens, SW-620, SW620 cells, 72 hours treatment, read-out: IC50, colorectal cancer cell line SW620

Row | Compound | pIC50 [1] | pIC50 [2] | pIC50 [3] | pIC50 [4] | pIC50 [5] | pIC50 [6] | pIC50 [7] | pIC50 [8] | pIC50 [9] | pIC50 [10] | pIC50 [11] | pIC50 [12] | pIC50 [13] | pIC50 [14] | pIC50 [15] | pIC50 [16] | pIC50 [17] | pIC50 [18]
1 | COc1cc(S(F)(F)(F)(F)F)ccc1C[S+]([O-])c1[nH]c2c(Br)ccc(Cl)c2c(=O)c1C(C)=O (centres unmarked) [Compound 75, 3-acetyl-8-bromo-5-chloro-2-((2-methoxy-4-(pentafluoro--sulfanyl)benzyl)sulfinyl)quinolin-4(1H)-one] | 6.06 | 5.90 | 5.75 | 5.86 | < 5.00 | < 5.70 | 5.78 | 5.75 | 5.88 |  |  |  |  |  |  |  |  | 
2 | CC(=O)c1c([S+]([O-])Cc2cccnc2)[nH]c2c(Br)ccc(Cl)c2c1=O (centres unmarked) [Compound 84, 3-acetyl-8-bromo-5-chloro-2-((pyridin-3-ylmethyl)sulfinyl)quinolin-4(1H)-one] |  |  |  |  |  |  |  |  |  | 6.03 | 5.94 | 5.89 | 5.82 | < 5.00 | 5.71 | 5.90 | 5.81 | 5.91
3 | CC(=O)c1c([S+]([O-])Cc2ccc(C#N)cc2)[nH]c2c(Br)ccc(Cl)c2c1=O (centres unmarked) [Compound 73, 4-(((3-acetyl-8-bromo-5-chloro-4-oxo-1,4-dihydroquinolin-2-yl)sulfinyl)methyl)benzonitrile] | 5.88 | 5.73 | < 5.70 | < 5.70 | < 5.00 | < 5.70 | < 5.70 | < 5.70 | < 5.70 |  |  |  |  |  |  |  |  | 
4 | CC(=O)c1c([S+]([O-])Cc2ccc(F)c(Cl)c2)[nH]c2c(Br)ccc(Cl)c2c1=O (centres unmarked) [Compound 31, 3-acetyl-8-bromo-5-chloro-2-((3-chloro-4-fluorobenzyl)sulfinyl)quinolin-4(1H)-one] | 6.09 | 5.93 | 5.85 | 5.90 | < 5.00 | < 5.70 | 5.78 | 5.87 | 5.85 |  |  |  |  |  |  |  |  | 
5 | CC(=O)c1c([S+]([O-])Cc2cc(F)cc(S(F)(F)(F)(F)F)c2)[nH]c2c(Br)ccc(Cl)c2c1=O (centres unmarked) [Compound 76, 3-acetyl-8-bromo-5-chloro-2-((3-fluoro-5-(pentafluoro--sulfanyl)benzyl)sulfinyl)quinolin-4(1H)-one] | 5.96 | 5.80 | < 5.70 | 5.79 | < 5.00 | < 5.70 | < 5.70 | < 5.70 | 5.82 |  |  |  |  |  |  |  |  | 
6 | CC(=O)c1c([S+]([O-])Cc2cc(Cl)ccc2Cl)[nH]c2c(Br)ccc(Cl)c2c1=O (centres unmarked) [Compound 44, 3-acetyl-8-bromo-5-chloro-2-((2,5-dichlorobenzyl)sulfinyl)quinolin-4(1H)-one] | 6.05 | 5.92 | 5.78 | 5.83 | < 5.00 | < 5.70 | 5.87 | 5.84 | 5.94 |  |  |  |  |  |  |  |  | 
7 | CC(=O)c1c(S(=O)(=O)Cc2ccccc2)[nH]c2c(Br)ccc(Cl)c2c1=O [Compound 34, 3-acetyl-2-(benzylsulfonyl)-8-bromo-5-chloroquinolin-4(1H)-one] | 5.88 | 5.74 | < 5.70 | 5.71 | < 5.00 | < 5.70 | < 5.70 | 5.73 | < 5.70 |  |  |  |  |  |  |  |  | 
8 | CC(=O)c1c([S+]([O-])Cc2ccc([S+]([O-])C(F)(F)F)cc2)[nH]c2c(Br)ccc(Cl)c2c1=O (centres unmarked) [Compound 64, 3-acetyl-8-bromo-5-chloro-2-((4-((trifluoromethyl)sulfinyl)benzyl)sulfinyl)quinolin-4(1H)-one] |  | 5.86 | 5.79 | 5.87 | < 5.00 | < 5.70 | < 5.70 | 5.78 | 5.77 |  |  |  |  |  |  |  |  | 
9 | CC(=O)c1c([S+]([O-])Cc2ccc(F)cc2F)[nH]c2c(Br)ccc(Cl)c2c1=O (centres unmarked) [Compound 29, 3-acetyl-8-bromo-5-chloro-2-((2,4-difluorobenzyl)sulfinyl)quinolin-4(1H)-one] | 6.06 | 5.92 | 5.77 | 5.85 | < 5.00 | < 5.70 | < 5.70 | 5.86 | 5.80 |  |  |  |  |  |  |  |  | 
10 | CC(=O)c1c([S+]([O-])Cc2ccc([N+](=O)[O-])cc2)[nH]c2c(Br)ccc(Cl)c2c1=O (centres unmarked) [Compound 33, 3-acetyl-8-bromo-5-chloro-2-((4-nitrobenzyl)sulfinyl)quinolin-4(1H)-one] | 6.03 | 5.88 | 5.78 | 5.82 | < 5.00 | < 5.70 | < 5.70 | 5.82 | 5.82 |  |  |  |  |  |  |  |  | 
11 | COc1cccc(C[S+]([O-])c2[nH]c3c(Br)ccc(Cl)c3c(=O)c2C(C)=O)c1 (centres unmarked) [Compound 55, 3-acetyl-8-bromo-5-chloro-2-((3-methoxybenzyl)sulfinyl)quinolin-4(1H)-one] | 5.94 | 5.74 | < 5.70 | 5.74 | < 5.00 | < 5.70 | < 5.70 | 5.72 | < 5.70 |  |  |  |  |  |  |  |  | 
12 | CC(=O)c1c([S+]([O-])Cc2cc(F)cc(F)c2)[nH]c2c(Br)ccc(Cl)c2c1=O (centres unmarked) [Compound 46, 3-acetyl-8-bromo-5-chloro-2-((3,5-difluorobenzyl)sulfinyl)quinolin-4(1H)-one] | 5.90 | 5.74 | < 5.70 | 5.71 | < 5.00 | < 5.70 | < 5.70 | 5.76 | 5.74 |  |  |  |  |  |  |  |  | 
13 | CC(=O)c1c([S+]([O-])Cc2c(F)cccc2Cl)[nH]c2c(Br)ccc(Cl)c2c1=O (centres unmarked) [Compound 74, 3-acetyl-8-bromo-5-chloro-2-((2-chloro-6-fluorobenzyl)sulfinyl)quinolin-4(1H)-one] | 5.99 | 5.79 | 5.70 | 5.82 | < 5.00 | < 5.70 | < 5.70 | 5.75 | < 5.70 |  |  |  |  |  |  |  |  | 
14 | CC(=O)c1c([S+]([O-])Cc2c(F)c(F)c(F)c(F)c2F)[nH]c2c(Br)ccc(Cl)c2c1=O (centres unmarked) [Compound 78, 3-acetyl-8-bromo-5-chloro-2-(((perfluorophenyl)methyl)sulfinyl)quinolin-4(1H)-one] | 5.89 | 5.71 | < 5.70 | 5.80 | < 5.00 | < 5.70 | < 5.70 | 5.75 | 5.82 |  |  |  |  |  |  |  |  | 
15 | Cc1cc(C[S+]([O-])c2[nH]c3c(Cl)ccc(Cl)c3c(=O)c2C(=O)C(C)C)no1 (centres unmarked) [Compound 86, 5,8-dichloro-3-isobutyryl-2-(((5-methylisoxazol-3-yl)methyl)sulfinyl)quinolin-4(1H)-one] |  |  |  |  |  |  |  |  |  | 5.96 | 6.07 | 5.95 | 5.90 | < 5.00 | 5.94 | 6.05 | 5.90 | 6.13
16 | CC(=O)c1c([S+]([O-])Cc2ccc([N+](=O)[O-])cc2)[nH]c2c(Cl)ccc(Cl)c2c1=O (centres unmarked) [Compound 57, 3-acetyl-5,8-dichloro-2-((4-nitrobenzyl)sulfinyl)quinolin-4(1H)-one] | < 5.70 | < 5.70 | < 5.70 | < 5.70 | < 5.00 | < 5.70 | < 5.70 | < 5.70 | < 5.70 |  |  |  |  |  |  |  |  | 
17 | CC(=O)c1c([S+]([O-])Cc2ccc(C(F)(F)F)cc2)[nH]c2c(Br)ccc(Cl)c2c1=O (centres unmarked) [Compound 70, 3-acetyl-8-bromo-5-chloro-2-((4-(trifluoromethyl)benzyl)sulfinyl)quinolin-4(1H)-one] | 6.04 | 5.88 | 5.81 | 5.92 | < 5.00 | < 5.70 | < 5.70 | 5.77 | 5.79 |  |  |  |  |  |  |  |  | 
18 | CC(=O)c1c([S+]([O-])Cc2cc(C)on2)[nH]c2c(Br)ccc(Cl)c2c1=O (centres unmarked) [Compound 51, 3-acetyl-8-bromo-5-chloro-2-(((5-methylisoxazol-3-yl)methyl)sulfinyl)quinolin-4(1H)-one] | 6.18 | 6.08 | 5.92 | 6.00 | < 5.00 | 5.79 | 6.02 | 6.00 | 5.96 |  |  |  |  |  |  |  |  | 
19 | CC(=O)c1c([S+]([O-])Cc2cccc(F)c2)[nH]c2c(Br)ccc(Cl)c2c1=O (centres unmarked) [Compound 50, 3-acetyl-8-bromo-5-chloro-2-((3-fluorobenzyl)sulfinyl)quinolin-4(1H)-one] | 6.00 | 5.86 | 5.70 | 5.80 | < 5.00 | < 5.70 | < 5.70 | 5.80 | 5.75 |  |  |  |  |  |  |  |  | 
20 | CC(=O)c1c([S+]([O-])Cc2ccc(C(F)(F)F)o2)[nH]c2c(Br)ccc(Cl)c2c1=O (centres unmarked) [Compound 72, 3-acetyl-8-bromo-5-chloro-2-(((5-(trifluoromethyl)furan-2-yl)methyl)sulfinyl)quinolin-4(1H)-one] | 6.13 | 6.03 | 5.91 | 6.00 | < 5.70 | 5.72 | 5.85 | 5.91 | 5.87 |  |  |  |  |  |  |  |  | 
21 | COC(=O)c1ccc(C[S+]([O-])c2[nH]c3c(Cl)ccc(Cl)c3c(=O)c2C(C)=O)o1 (centres unmarked) [Compound 89, methyl 5-(((3-acetyl-5,8-dichloro-4-oxo-1,4-dihydroquinolin-2-yl)sulfinyl)methyl)furan-2-carboxylate] |  |  |  |  |  |  |  |  |  | 5.79 | 5.80 | < 5.70 | < 5.70 | < 5.00 | < 5.70 | 5.76 | < 5.70 | 5.77
22 | COc1cc(C[S+]([O-])c2[nH]c3c(Br)ccc(Cl)c3c(=O)c2C(C)=O)cc(OC)c1 (centres unmarked) [Compound 59, 3-acetyl-8-bromo-5-chloro-2-((3,5-dimethoxybenzyl)sulfinyl)quinolin-4(1H)-one] | 6.05 | 5.95 | 5.82 | 5.90 | < 5.00 | < 5.70 | < 5.70 | 5.87 | 5.81 |  |  |  |  |  |  |  |  | 
23 | CC(=O)c1c([S+]([O-])Cc2ccc(I)cc2)[nH]c2c(Cl)ccc(Cl)c2c1=O (centres unmarked) [Compound 83, 3-acetyl-5,8-dichloro-2-((4-iodobenzyl)sulfinyl)quinolin-4(1H)-one] |  |  |  |  |  |  |  |  |  | 5.86 | 5.74 | 5.73 | 5.79 | < 5.00 | < 5.70 | 5.99 | < 5.70 | < 5.70
